From ChEMBL document CHEMBL1132680, “A "cephalosporin-like" cyclic depsipeptide: synthesis and reaction with beta-lactam-recognizing enzymes” (Bioorg Med Chem Lett, 1999)

Tests used:
Assay type in all cases: ADME
[1] = Km against class C P99 beta-lactamase catalyzed lactone hydrolysis
[2] = Km against class A PCI beta-lactamase catalyzed lactone hydrolysis
[3] = Kcat against class A PCI beta-lactamase catalyzed lactone hydrolysis
[4] = Kcat against class C P99 beta-lactamase catalyzed lactone hydrolysis
[5] = Km against class A TEM beta-lactamase catalyzed lactone hydrolysis
[6] = Kcat/Km against class A TEM beta-lactamase catalyzed lactone hydrolysis
[7] = Kcat/Km against class C P99 beta-lactamase catalyzed lactone hydrolysis
[8] = Kcat against class A TEM beta-lactamase catalyzed lactone hydrolysis
[9] = Kcat/Km against class A PCI beta-lactamase catalyzed lactone hydrolysis

Km [1] [µM] | Km [2] [µM] | k cat [3] [s⁻¹] | k cat [4] [s⁻¹] | Km [5] [µM] | Ratio [6] [M⁻¹ s⁻¹] | Ratio [7] [M⁻¹ s⁻¹] | k cat [8] [s⁻¹] | Ratio [9] | SMILES
620 | 0.304 | 0.0047 | 5.4 | 53 | 39000 | 8700 | 2.07 | 1.55 M⁻¹ s⁻¹ | O=C(Cc1ccccc1)N[C@H]1Cc2cccc(C(=O)O)c2OC1=O
290 | 15 | 0.024 | 5.6 | > 1000 | 1200 | 19000 | > 1.2 | 1.6 M⁻¹ s⁻¹ | O=C(Cc1ccccc1)N[C@@H](Cc1cccc(C(=O)O)c1O)B(O)O
9 | ≤ 1 | 0.001 | 200 | 200 | 600000 | 22000000 | 120 | >= 1000 M-1 s-1 | CC(=O)OCC1=C(C(=O)O)N2C(=O)[C@@H](NC(=O)Cc3cccs3)[C@H]2SC1 [CEPHALOTHIN]
